Measurements: patent US12478624B2, “Heterocyclic derivatives, pharmaceutical compositions and their use in the treatment or amelioration of cancer” (Tolremo Therapeutics AG, priority 2019, dated 2025)

Legend:
[1] = test system: A375 cells; experiment: Assay 1: A375 cells treated with S1152, S1008 and compound, immunofluorescence (sc-365823) signal; assay type: cell-based; details: 1 μM S1152 + 0.5 μM S1008, one day
Summary of the method: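 A375 cells treated one day with 1 μM S1152, 0.5 μM S1008 and compound dose ranges in DMEM/10% FCS, then fixed, permeabilised and immunostained. Green signal normalised to nuclear counterstain (ethidium-type or DAPI), log ratio fitted by four-parameter regression for EC50.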

[2] = test system: OPM-2; experiment: Assay 2: multiple myeloma cellular efficacy, PrestoBlue cell proliferation/survival; assay type: cell-based; details: Homo sapiens, 96 h, OPM-2 cells, 4 days
Protocol: Multiple Myeloma Cellular Efficacy:
10000 OPM-2 (ACC50; DSMZ) were plated into wells of a 384 well plate (Greiner 781090). Cells were treated for 4 days with a dose range of compound or vehicle. At the end of the experiment cells were stained directly with PrestoBlue (ThermoFisher Scietific; A13262) for 2 hours at 37° C. in a humidified incubator according to manufactor's instruction. To assess the relative cell number the PrestoBlue signal was measured using either a TecanM1000Pro reader or a Tecan Sparks reader following the manufactor's instructions. Background (no cells) values were subtracted and set in relation to the vehicle control. To assess the EC50 of each compound the relative fluorescence value was plotted against the compound concentration after log transformation. Data were fitted in a nonlinear manner with a variable slope (four parameters) using graphpad prism software. Cellular efficacy of compounds was evaluated in the multiple myeloma cell line OPM-2 using the cell proliferation/survival assay PrestoBlue. EC50 values are classified as indicated below.

Row | Structure (SMILES) | EC50 [1] | EC50 [2]
1 | CC(=O)N1C[C@H](c2nc(Nc3cccc(-n4ccnn4)c3)cc(-c3cccnc3)n2)CC[C@@H]1C [Compound 00083, 1-((2S,5R)-5-(4-((3-(1H-1,2,3-triazol-1-yl)phenyl)amino)-6-(pyridin-3-yl)pyrimidin-2-yl)-2-methylpiperidin-1-yl)ethan1-one] | < 0.2 µM | 0.2 to 1 µM
2 | CC(=O)N1C[C@H](c2nc(Nc3cc(F)cc(N4CCOCC4)c3)cc(-c3cnccn3)n2)CC[C@@H]1C [Compound 00070, 1-((2S,5R)-5-(4-((3-fluoro-5-morpholinophenyl)amino)-6-(pyrazin-2-yl)pyrimidin-2-yl)-2-methylpiperidin-1-yl)ethan-1-one] | < 0.2 µM | < 0.2 µM
3 | CC(=O)N1C[C@H](c2nc(Nc3cccc(NC(=O)c4ccccc4)c3)cc(-c3cccnc3)n2)CC[C@@H]1C [Compound 00079, N-(3-((2-((3R,6S)-1-acetyl-6-methylpiperidin-3-yl)-6-(pyridin-3-yl)pyrimidin-4-yl)amino)phenyl)benzamide] | < 0.2 µM | < 0.2 µM
4 | CC(=O)N1C[C@H](c2nc(Nc3cccc4nn(C)cc34)cc(-c3cnccn3)n2)CC[C@@H]1C [Compound 00050, 1-((2S,5R)-2-methyl-5-(4-((2-methyl-2/−/−indazol-4-yl)amino)-6-(pyrazin-2-yl)pyrimidin-2-yl)piperidin-1-yl)ethan-1-one] | < 0.2 µM | 0.2 to 1 µM
5 | CC(=O)Nc1cccc(Nc2cc(-c3cncc4c3ccn4C)nc([C@@H]3CC[C@H](C)N(C(C)=O)C3)n2)c1 [Compound 00085, N-(3-((2-((3R,6S)-1-acetyl-6-methylpiperidin-3-yl)-6-(1-methyl-1H-pyrrolo[2,3-c]pyridin-4-yl)pyrimidin-4-yl)amino)phenyl)acetamide] | < 0.2 µM | < 0.2 µM
6 | COCCOc1cncc(-c2cc(Nc3ccnc(F)c3)nc([C@@H]3CC[C@H](C)N(C(C)=O)C3)n2)c1 [Compound 00119, 1-((2S,5R)-5-(4-((2-fluoropyridin-4-yl)amino)-6-(5-(2-methoxyethoxy)pyridin-3-yl)pyrimidin-2-yl)-2-methylpiperidin-1-yl)ethan-1-one] | < 0.2 µM | < 0.2 µM
7 | CC(=O)N1C[C@H](c2nc(Nc3cncc(C)c3)cc(-c3cccnc3)n2)CC[C@@H]1C (racemic) [Compound 00096, (+/−)-cis-1-(2-methyl-5-(4-((5-methylpyridin-3-yl)amino)-6-(pyridin-3-yl)pyrimidin-2-yl)piperidin-1-yl)ethan-1-one] | < 0.2 µM | 0.2 to 1 µM

More lines, main results first:

Row | EC50 [1] | Structure (SMILES) | EC50 [2]
8 | 0.2 to 1 µM | CC(=O)N1C[C@H](c2nc(Nc3cc(C)ncn3)cc(-c3cnccn3)n2)CC[C@@H]1C [Compound 00151, 1-((2S,5R)-2-methyl-5-(4-((6-methylpyrimidin-4-yl)amino)-6-(pyrazin-2-yl)pyrimidin-2-yl)piperidin-1-yl)ethan-1-one] | 0.2 to 1 µM
9 | < 0.2 µM | CC(=O)N1C[C@H](c2nc(Nc3cc(C)nc(C)c3)cc(-c3cccnc3)n2)CC[C@@H]1C [Compound 00138, 1-((2S,5R)-5-(4-((2,6-dimethylpyridin-4-yl)amino)-6-(pyridin-3-yl)pyrimidin-2-yl)-2-methylpiperidin-1-yl)ethan-1-one] | 0.2 to 1 µM
10 | 0.2 to 1 µM | COCCn1cc(-c2cc(Nc3cc(-c4cccnc4)nc([C@@H]4CC[C@H](C)N(C(C)=O)C4)n3)ccn2)cn1 [Compound 00160, 1-((2S,5R)-5-(4-((2-(1-(2-methoxyethyl)-1H-pyrazol-4-yl)pyridin-4-yl)amino)-6-(pyridin-3-yl)pyrimidin-2-yl)-2-methylpiperidin-1-yl)ethan-1-one] | 0.2 to 1 µM
11 | < 0.2 µM | CC(=O)N1C[C@H](c2nc(Nc3ccnc(C(C)(F)F)c3)cc(-c3cccnc3)n2)CC[C@@H]1C [Compound 00146, 1-((2S,5R)-5-(4-((2-(1,1-difluoroethyl)pyridin-4-yl)amino)-6-(pyridin-3-yl)pyrimidin-2-yl)-2-methylpiperidin-1-yl)ethan-1-one] | 0.2 to 1 µM
